The values that follow come from patent publication US20160368872A1, “COMPOUNDS AND METHODS FOR TREATING CANCERS” (HEALTH RESEARCH, INC., priority 2013, published 2016).

For data set [1], the system named is androgen receptor. Briefly: AR level in cells with inhibited p53 activity. It counts as cell-based. To be noted: MCF7 cells with functionally inactive p53 (R175H, GSE56). The source says: Also tested was the hypothesis that degradation of androgen receptor in prostate and breast cancer cells may be due to p53 induced accumulation of mdm2, which is also ubiquitin ligase for androgen receptor (FIG. 15). p53 was inactivated in several cell lines using different approaches what led to the blockade of mdm2 accumulation after c52 treatment. However androgen receptor was still degraded in c52 treated cells even in the absence of p53 activation and mdm2 accumulation (FIG. 16).

Data set [2] concerns CWR22R cells. The class given is cell-based. The protocol:
All compounds were tested for toxicity using 4 cells lines, target cells-CWR22R and non-target cells, Hela, PC3 and MDA-MB-231 (FIGS. 1A-F).
LC50 data of in vitro 72 hours cytotoxicity assay are included in this table for comparison.

Data set [3] is described as follows: tissue drug concentrations in mice bearing CWR22R tumors. It counts as in vivo, SCID mice. The protocol:
(§1) We tested these compounds in an in vivo efficacy experiment using model of CRPC in SCID mice, CWR22R. Two compounds, PLA1079 and 1125, which were synthesized in the amount of 500 mg were tested in full scale experiment with either 5 IV daily injections or 10 IP daily injections. After 5 IP or IV injections intra-tumor concentration of the compounds were measured in few mice from this experiment.
Two other compounds, PLA1148 and 1098 (PK testing in FIGS. 8 and 9) were tested in a small scale efficacy experiment. Upon PK testing of the compound PLA1148 one mouse was injected twice with 10 min interval. However the concentration of the drug in plasma of this mouse was not twice, but >4 times higher than in mice injected once. […] It was decided to utilize this observation in an attempt to get higher plasma and tumor concentration of both compounds. Therefore in the pilot efficacy experiment in the same model of CWR22R cells mice were treated with 2 IP injections with 10 minute interval. Treatment with PLA1098 was carried out for two days. […] However this is so far the highest concentration found in tumor. […]

Data set [4] can be described thus: plasma concentration after intravenous and intraperitoneal injections (PK). The class given is in vivo. Particulars: for bioavailability through IP injection: IP versus IV, doses 50-100 mg/kg; for course of plasma concentration: after intravenous and intraperitoneal injections, 50-100 mg/kg.
The subject of data set [5] is CWR22R tumors. Briefly: in vivo efficacy, subcutaneous xenografts of CWR22R cells in SCID mice. The protocol: as §1
(§2) Two other compounds, PLA1148 and 1098 (PK testing in FIGS. 8 and 9) were tested in a small scale efficacy experiment. Upon PK testing of the compound PLA1148 one mouse was injected twice with 10 min interval. However the concentration of the drug in plasma of this mouse was not twice, but >4 times higher than in mice injected once. […] It was decided to utilize this observation in an attempt to get higher plasma and tumor concentration of both compounds. Therefore in the pilot efficacy experiment in the same model of CWR22R cells mice were treated with 2 IP injections with 10 minute interval. Treatment with PLA1098 was carried out for two days. […] However this is so far the highest concentration found in tumor.
Pilot efficacy experiments were run for compounds: PLA1163, PLA1148 using the same model of subcutaneous xenografts of CWR22R cells in SCID mice (FIGS. 18 and 19).

The test system of data set [6] is Caveolin1. Briefly: expression of Caveolin1 in sensitive versus resistant cells. Particulars: MDA MB 231 and MCF7 cells. The class given is cell-based. From the text: FIG. 12. Expression of Caveolin1 in sensitive versus resistant cells. Caveolin1 is expressed in resistant MDA MB 231 cells, but not in sensitive MCF7 cells.
For data set [7], the system named is presumable target protein in protein lysates from sensitive CWR22r cells. Briefly: DARTS (Drug Affinity Responsive Target Stability) assay. To be noted: treated vs untreated. As to the method: FIG. 24. DARTS (Drug Affinity Responsive Target Stability) assay was performed using c52 and PLA1118. According to this assay these compounds are capable of protecting presumable target protein from protease degradation. Protein lysates from sensitive CWR22r cells were incubated with or without the drug and subsequently digested with the indicated concentration of pronase. A. c52 was used (lane T-treated, M-marker) with indicated concentrations of pronase; ability of c52 to protect its target from protease cleavage was judged based on presence of protein band in the treated lane vs the untreated (UT) control.

Data set [8] is described as follows: toxicity observed in mice of the pilot efficacy experiments. It counts as in vivo. The protocol: as §2
This compound may be also potentially promising.

The subject of data set [9] is CWR22R cells. Put plainly: toxicity of PLA1055 to CWR22R cells depending on time of incubation (LC90, Alamar Blue). The class given is cell-based. To be noted: incubation 4-8 hours; survival detected at 72 hours. The protocol: FIG. 21. Toxicity of PLA1055 to CWR22R cells in vitro depending on time of incubation. PLA1055 was added to CWR22R in full range of concentrations for the periods of time shown on the right. After that drug containing media were changed for drug free and survival of cells was detected at 72 hours after start of treatment using Alamar Blue assay (Promega).
An in vitro experiment was run to detect the concentration of PLA1055 needed to kill all tumor cells in vitro (LC90) during different periods of time (30 minutes-72 hours, FIG. 21)).
For orientation: Alamar Blue is a resazurin reagent that responds to reducing activity.

Setting [10] is: 24 hours after last injection, 2 IP injections with 10 minute interval, two days.

Take `CC(=O)c1ccc2c(c1)c1cc(C(C)=O)ccc1n2CCNC(C)C` [CBL 137, reference compound]: in data set [1], the AR level result is reported as “AR is being degraded”.
On to `CCCn1c2ccccc2c2cc(-c3nnco3)ccc21` [PLA1079], for which, in [2], the midpoint of cytotoxicity, the CC50, lay at 120 nM. Moreover, in data set [3] (100 mg/kg, IP/IV), the “Tumor concentration” value lay within 24 to 48 nM. In [4], the “bioavailability through IP injection” value is reported as “very high bioavailability” and the “course of plasma concentration” value is “fast reduction of concentration during the first hour”. For the same compound, the in vivo efficacy entry in data set [5] (5 IV daily injections or 10 IP daily injections) is given as “absence of in vivo efficacy”. The AR level entry in data set [1] is listed as “AR is being degraded”. Also, in data set [6], the “levels of Caveolin1 expression” value is “did not change”.
Take `CCCn1c2ccccc2c2cc(S(C)(=O)=O)ccc21` [PLA1118]: the “protection of target protein band from pronase degradation” value in data set [7] is on record as “faintly”.
With `CCCn1c2ccccc2c2c3c(ccc21)C(=O)N(C)C3` [PLA1098], the midpoint of cytotoxicity in [2], the CC50, lay at 40 nM. Moreover, in [3] (100 mg/kg, IP), the “Liver” value is recorded as 0 nM and the “Tumor concentration” value is 23 to 25 nM. For the same compound, the Intratumor concentration in data set [3] (2 tested tumors at 24 hours after last injection, 2 IP injections with 10 minute interval, two days) came out at 25 nM. Moreover, in data set [3] (setting [10]), the compound in liver result is listed as “no detectable” and the compound in plasma result is “no detectable”. Also, in data set [4], the “bioavailability through IP injection” value was “very high bioavailability” and the “course of plasma concentration” value was “fast reduction of concentration during the first hour”. Besides, in [5] (2 IP injections with 10 minute interval for two days, tumors excised 12 days after treatment), the “tumor volume and tumor weight vs vehicle control” value was “certain reduction of tumor volume and tumor weigh in the 1098 treated group vs vehicle control, but not statistically significant”. Further, in data set [5] (summary statement), the in vivo efficacy result is given as “evidence of in vivo efficacy”. Besides, the “side effects during the treatment” value in [8] (2 IP injections with 10 minute interval for two days) is listed as “no signs of side effects were noticed”. Besides, in data set [8] (summary statement), the signs of toxicity entry is on record as “without any signs of toxicity”. Also, the “protection of target protein band from pronase degradation” value in data set [7] was “protected their targets from degradation”.
In the case of `CC(=O)c1ccc2c(c1)c1ccccc1n2CCCF` [PLA1055], the CC50 – broadly, the concentration at which the toxic effect on the cells reaches its halfway point – in [2] was determined as 40 nM. In addition, the “plasma concentration at 8 hours” value in data set [4] (8 hours, single IV administration of 50 mg/kg (FIG. 20)) is “below 1 uM”. Further, the “time up to which compound was detected” value in data set [4] (single IV administration of 50 mg/kg (FIG. 20)) is on record as “up to 24 hours”. This compound also yielded an LC90 in [9] of 2500 nM.
